Literature values in US12233082B2, “Compositions and methods for multi-use suppression and acquisition of viruses” (priority 2021, dated 2025).

Columns and labels:
HIV-1 = details: 500 mg valacyclovir twice daily, 12 weeks, vs placebo
HSV = details: 500 mg valacyclovir; expected for group 2 from previous research

SMILES: CC(C)[C@H](N)C(=O)OCCOCn1cnc2c(=O)[nH]c(N)nc21 [valacyclovir]
- reduction of HIV-1 viral load in plasma, on average (HIV-1): 0.37 log10 copies/mL
- percentage of source partners with HSV-2 shedding in the genital tract (FIG. 1) (HSV-2; 500 mg valacyclovir daily, N=39 vs placebo N=50, PCR detectable shedding): decreased at a much quicker rate than those taking the placebo
- risk of transmission of HSV-2 (HSV-2; 500 mg valacyclovir once daily, 8 months, source partners vs placebo): reduced the risk of transmission of HSV-2
- HSV PCR detectability rate median (HSV): 5% of days
